Results taken from PubChem BioAssay AID651853 (NMMLSC, 2012).

Tested on: AM2.2 cells FAP-GPR32, fluorogen binding, flow cytometry MCF
Test: fluorogen binding to FAP-tagged GPR32, dose response, counter-screen for beta2AR agonist internalization project, human GPR32, AM2.2 cells, powder set 3 (AID 651853)

| Compound | EC50 [nM] |
| --- | --- |
| O=C(c1cc2c(=O)n3ccccc3nc2s1)N1CCN(Cc2ccc3c(c2)OCO3)CC1 | 110 |
| CC(Sc1nc(-c2ccccc2)cc(C(F)(F)F)n1)C(=O)N1CCOCC1 (stereo not given) | 20 |
| CC(Oc1ccc(Cl)cc1Cl)c1nc(-c2ccc(NC(=O)c3ccccn3)cc2)no1 (stereo not given) | 120 |
| Cn1c(N2CCN(c3ccccn3)CC2)nc2c1c(=O)n(Cc1ccc(Cl)cc1)c(=O)n2C | 10 |
| CC(=O)Nc1ccc(S(=O)(=O)N2CCC(Oc3ccc(-n4cnnn4)cc3)CC2)cc1 | 40 |
| Clc1cccc(-c2nnc(SCc3nc4ccccc4[nH]3)n2Cc2ccco2)c1 | 7180 |
| Cc1ccc(Cn2ccc(NC(=O)c3cc4nc(-c5ccco5)cc(C(F)(F)F)n4n3)n2)cc1 | 10 |
| COc1ccc(OC)c(CCNC(=O)C2CCN(c3nnc(-n4cccc4)s3)CC2)c1 | 1420 |
| Cc1ncc(CN2CCCC(C(=O)Nc3ccc(-c4cccc(F)c4)cc3)C2)s1 (stereo not given) | 870 |
| CC(C)Cc1nc2sc3c(NCc4ccco4)ncnc3c2c2c1COC(C)(C)C2 | 20 |
| CC(Oc1ccc(Cl)cc1Cl)c1nc(-c2ccc(NC(=O)c3ccco3)cc2)no1 (stereo not given) | 230 |
| CC1(C)Cc2c(c(N3CCCC3)nc3sc4c(N5CCN(CCO)CC5)ncnc4c23)CO1 | 2560 |
| Cc1ccc(NC(=O)C(c2ccc(Cl)cc2)N2CCOCC2)cc1 (stereo not given) | 920 |
| C=CCn1c(CCNC(=O)c2cccs2)nnc1SCC(=O)c1ccc(Br)cc1 | 10 |
| CN(Cc1ccccc1)S(=O)(=O)c1ccc(NS(=O)(=O)Cc2ccccc2)cc1 | 50 |
| Cc1ccccc1N1CCN(c2ncnc3c2cnn3Cc2ccc(Cl)cc2)CC1 | 2170 |
| CSc1nc(SCCO)c2sc3nc(-c4ccco4)c4c(c3c2n1)CC(C)(C)OC4 | 1810 |
| CC(Sc1nc(-c2ccccc2)cc(C(F)(F)F)n1)C(=O)N1CCCCC1 (stereo not given) | 10 |
| Cc1ccc(OCc2cc(C(=O)N(C)Cc3cnn(-c4ccccc4C)c3)no2)cn1 | 60 |
| Clc1ccc(OCc2nnc(SCc3nc4ccccc4[nH]3)n2Cc2ccco2)cc1 | 10 |
